According to article doi:10.1101/2025.05.10.653276 (bioRxiv, 2025):
Like-named read-outs stand apart in the source and are kept apart here.

What was measured:
[1] = test system: B. ovis; type: cell-based, Brucella ovis
[2] = in vitro; conditions: human
[3] = test system: B. ovis; assay: microbe, parasite or virus in culture; type: cell-based; conditions: Brucella ovis
[4] = test system: B. ovis; assay: microbe, parasite or virus in culture; type: cell-based, Brucella ovis; conditions: for IC50: Brucella ovis
[5] = test system: B. ovis; type: cell-based, Brucella ovis; remark: listed apart in the source
[6] = test system: B. abortus; type: cell-based, Brucella abortus
[7] = test system: THP-1 cells
[8] = test system: B. abortus; assay: microbe, parasite or virus in culture; type: cell-based; conditions: Brucella abortus, THP-1, 48 h, read-out: IC50, intracellular B. abortus
[9] = test system: B. ovis; type: cell-based, Brucella ovis; remark: listed apart in the source
[10] = test system: B. abortus; assay: microbe, parasite or virus in culture; type: cell-based, Brucella abortus; conditions: for IC50: Brucella abortus, 48 h, read-out: IC50, axenic B. abortus WT (Fig. S6B)
[11] = test system: B. abortus; type: cell-based, Brucella abortus; remark: listed apart in the source
[12] = test system: L-type Ca^2+ channels; conditions: read-out: Reported IC50 for L-type Ca^2+ channels; cited from earlier work
[13] = test system: THP-1 cells; type: cell-based, human
[14] = THP-1, read-out: Intracellular IC50
[15] = THP-1, 48 h, read-out: IC50, intracellular B. ovis growth
[16] = 48 h, read-out: IC50, axenic B. ovis growth

C[C@H](CCC(=O)NCCC[N+](C)(C)CCCS(=O)(=O)[O-])[C@H]1CC[C@H]2[C@@H]3[C@H](O)C[C@@H]4C[C@H](O)CC[C@]4(C)[C@H]3C[C@H](O)[C@]12C [CHAPS]
Sensitivity of WT B. ovis on TSA blood plates [1]: highly sensitive

COc1ccc(CN2CCN(C(c3ccc(F)cc3)c3ccc(F)cc3)CC2)c(OC)c1OC [Lomerizine]
CC50 [2]: 50 µM
IC50 [3, 14]: 9 µM
IC50 ([4]; read-out: Axenic IC50): > 50 µM

COC(=O)C1=C(C)NC(C)=C(C(=O)OC)C1c1ccccc1[N+](=O)[O-] [nifedipine]
Hit in B. ovis intracellular screen [5]: neither compound emerged as a hit

O=C1CCc2ccc(OCCCCN3CCN(c4cccc(Cl)c4Cl)CC3)cc2N1 [Aripiprazole]
CC50 [2]: 12 µM

c1ccc(-c2ccc(C(c3ccccc3)n3ccnc3)cc2)cc1 (stereo not shown) [Bifonazole]
CC50 [2]: > 50 µM
IC50 [3, 14]: 14 µM
IC50 ([4]; read-out: Axenic IC50): 4 µM

CCCCN(CCCC)CCC(O)c1cc2c(Cl)cc(Cl)cc2c2cc(C(F)(F)F)ccc12 (stereo not shown) [Halofantrine]
CC50 [2]: > 50 µM
IC50 [3, 14]: > 50 µM
IC50 ([4]; read-out: Axenic IC50): 11 µM

CC(=O)SCC(Cc1ccccc1)C(=O)NCC(=O)OCc1ccccc1 (stereo not shown) [Racecadotril]
CC50 [2]: > 50 µM
IC50 [3, 14]: > 50 µM
IC50 ([4]; read-out: Axenic IC50): > 50 µM

COc1ccc(CCN(C)CCCC(C#N)(c2ccc(OC)c(OC)c2)C(C)C)cc1OC (stereo not shown) [verapamil]
Hit in B. ovis intracellular screen [5]: neither compound emerged as a hit

N[C@@H]1C[C@H]1c1ccccc1 (racemic) [Tranylcypromine]
CC50 [2]: > 50 µM
IC50 [3, 14]: > 50 µM
IC50 ([4]; read-out: Axenic IC50): > 50 µM

COCCOC(=O)C1=C(C)NC(C)=C(C(=O)OC/C=C/c2ccccc2)C1c1cccc([N+](=O)[O-])c1 (stereo not shown) [Cilnidipine]
CFU recovery of ΔbepE B. abortus relative to wild-type in treated THP-1 cells [6]: significant reduction in CFU recovery
Host cytotoxicity in B. ovis-infected THP-1 cells [7]: not due to host cytotoxicity
CC50 [2]: > 50 µM
IC50 [8]: 13.5 µM
Growth of WT B. ovis in liquid culture (kinetic growth assay) [9]: failed to grow
IC50 [3, 15]: 2.5 µM
IC50 [3, 14]: 2 µM
Sensitivity of WT and ΔbepE B. abortus in axenic conditions [10]: insensitive
IC50 [10]: > 25 µM
Concentrations inhibiting B. ovis growth in complex liquid broth [4]: above 5 μM
IC50 [4, 16]: 5.09 µM
IC50 ([4]; read-out: Axenic IC50): 5 µM

OCCN(CCO)c1nc(N2CCCCC2)c2nc(N(CCO)CCO)nc(N3CCCCC3)c2n1 [Dipyridamole]
CC50 [2]: 41 µM
IC50 [3, 14]: > 50 µM
IC50 ([4]; read-out: Axenic IC50): > 50 µM

C[C@H](CCC(=O)O)[C@H]1CC[C@H]2[C@@H]3CC[C@@H]4C[C@H](O)CC[C@]4(C)[C@H]3C[C@H](O)[C@]12C [deoxycholate]
Growth of WT B. abortus on solid media [11]: modestly impaired WT growth
Growth of ΔbepE B. abortus on solid media [11]: unable to grow
Sensitivity of WT B. ovis on TSA blood plates [1]: highly sensitive
IC50 (B. abortus strain WT) [10]: 0.067%
IC50 (B. abortus strain ΔbepE glmS::bepDE) [10]: 0.052%
IC50 (B. abortus strain ΔbepE) [10]: 0.021%

COC(=O)C1=C(C)NC(C)=C(C(=O)OCCN(C)Cc2ccccc2)C1c1cccc([N+](=O)[O-])c1 (stereo not shown) [Nicardipine]
IC50 [12]: ~25 µM
WT B. abortus CFUs recovered from treated THP-1 cells compared to untreated controls [6]: significantly fewer
Host cytotoxicity in B. ovis-infected THP-1 cells [7]: not due to host cytotoxicity
CC50 [2]: 49 µM
IC50 [8]: 4.4 µM
Growth of WT B. ovis in liquid culture (kinetic growth assay) [9]: modest lag
IC50 [3, 15]: 2.3 µM
IC50 [3, 14]: 2 µM
Sensitivity of WT and ΔbepE B. abortus in axenic conditions [10]: insensitive
IC50 [10]: > 25 µM
Increase in intracellular calcium and manganese levels [13]: 20–40%
Effect on terminal density of B. ovis in axenic culture [4]: did not affect the terminal density
IC50 [4, 16]: > 25 µM
IC50 ([4]; read-out: Axenic IC50): > 50 µM

CCOc1ccc(NC(C)=O)cc1 [Phenacetin]
CC50 [2]: > 50 µM
IC50 [3, 14]: > 50 µM
IC50 ([4]; read-out: Axenic IC50): > 50 µM

CCCCCCCCCCCCOS(=O)(=O)[O-].[Na+] [SDS, sodium dodecyl sulfate]
Sensitivity of WT B. ovis on TSA blood plates [1]: highly sensitive
